Where two headings read alike, the source gives them in different places.
Key:
Assay type in all cases: biochemical
[1] = molecular target: T1, JAK1 (aa 850-1154, catalytic domain, GST-tag) (Homo sapiens, UniProt P23458); assay: JAK kinase assay (HTRF, phosphorylation of TK substrate-biotin), JAK1; details: ATP at Km (7 μM), read-out: JAK1 kinase inhibitory activity (EC50 indicator)
T1 construct: JAK1 (aa 850-1154) and TYK2 (aa 871-1187) are expressed with an N-terminally fused GST-tag; GST (N); purchased Carna Biosciences, Inc; host or cells: baculovirus expression system
T1 sequence (P23458 850-1154): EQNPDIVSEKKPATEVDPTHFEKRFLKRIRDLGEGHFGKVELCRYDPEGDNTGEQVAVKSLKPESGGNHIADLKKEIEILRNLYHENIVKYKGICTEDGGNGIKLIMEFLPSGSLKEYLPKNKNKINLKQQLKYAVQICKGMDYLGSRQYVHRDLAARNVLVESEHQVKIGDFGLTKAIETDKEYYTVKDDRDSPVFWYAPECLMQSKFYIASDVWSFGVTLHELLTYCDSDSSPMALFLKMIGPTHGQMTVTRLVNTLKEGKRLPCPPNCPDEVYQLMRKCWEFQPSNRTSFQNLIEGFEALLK
Experimental: (§1) Human baculovirus-expressed JAK1, 2, 3 and TYK2 were purchased from Carna Biosciences, Inc. All four purified enzymes contain only the catalytic domain. JAK1 (aa 850-1154) and TYK2 (aa 871-1187) are expressed with an N-terminally fused GST-tag, and JAK2 and JAK3 with an N-terminally fused His-tag.
(§2) Inhibition of phosphorylation of a synthetic peptide was measured in an HTRF-based assay using the TK substrate-Biotin from the Cisbio HTRFKinEASE TK kit. First, 2 μl of TK solution (TK substrate-biotin in kinase buffer [1× enzymatic buffer from HTRFKinEASE TK kit, 1 mM DTT]) is added to a plate containing 1 μl prediluted compound (final assay concentration DMSO: 0.75%). Then, 5 μl kinase-ATP mix (prepared in kinase buffer) is added to the wells and the plates are incubated at RT for 20-30 min. For all four kinases a concentration of ATP that corresponded to the Km for ATP was used. The final concentrations of buffers, substrate, kinase and ATP were: JAK1: 50 mM Hepes buffer pH 7.0, 0.01% BSA, 10 mM MgCl2, 1 mM DTT, 7 μM ATP, 50 nM SEB, 1 μM TK Substrate-Biotin and 5 ng JAK1; JAK2: 50 mM Hepes buffer pH 7.0, 0.01% BSA, 5 mM MgCl2, 1 mM DTT, 4 μM ATP, 1 μM TK Substrate-Biotin and 0.1 ng JAK2; JAK3: 50 mM Hepes buffer pH 7.0, 0.01% BSA, 5 mM MgCl2, 1 mM DTT, 2 μM ATP, 1 μM TK Substrate-Biotin and 0.3 ng JAK3; TYK2: 50 mM Hepes buffer pH 7.0, 0.01% BSA, 5 mM MgCl2, 1 mM DTT, 13 μM ATP, 50 nM SEB, 1 μM TK Substrate-Biotin and 0.8 ng TYK2. Thereafter, the kinase reaction is stopped by adding 4 μl detection mix (final concentrations: 50 mM Hepes buffer pH 7.0, 0.01% BSA, 0.8 M KF, 20 mM EDTA, 42 nM Streptavidin-XL665 and 1:400 STK Ab Cryptate) and the plates are incubated overnight in the dark. The HTRF signal is read using an Envision plate reader.
(§3) In Table 1 selected JAK kinase inhibitory activities are listed with the following indicators: I: EC50<100 nM, II: 100 nM≦EC50≦500 nM and III: EC50>500 nM

[2] = molecular target: T2, TYK2 (aa 871-1187, catalytic domain, GST-tag) (Homo sapiens, UniProt P29597); assay: JAK kinase assay (HTRF, phosphorylation of TK substrate-biotin), TYK2; details: ATP at Km (13 μM), read-out: TYK2 kinase inhibitory activity (EC50 indicator)
T2 construct: JAK1 (aa 850-1154) and TYK2 (aa 871-1187) are expressed with an N-terminally fused GST-tag; GST (N); purchased Carna Biosciences, Inc; host or cells: baculovirus expression system
T2 sequence (P29597 871-1187): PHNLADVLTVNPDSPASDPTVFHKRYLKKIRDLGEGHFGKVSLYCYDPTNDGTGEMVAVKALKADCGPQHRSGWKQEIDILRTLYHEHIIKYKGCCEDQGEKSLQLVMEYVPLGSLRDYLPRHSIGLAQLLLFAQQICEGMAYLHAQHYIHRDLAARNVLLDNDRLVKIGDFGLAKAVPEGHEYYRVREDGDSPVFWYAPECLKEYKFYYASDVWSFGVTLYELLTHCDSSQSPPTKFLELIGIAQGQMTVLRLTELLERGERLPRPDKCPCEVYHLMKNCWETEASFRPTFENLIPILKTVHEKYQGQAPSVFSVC
Experimental: as §1, §2, §3

[3] = molecular target: T3, JAK3 (catalytic domain, His-tag) (Homo sapiens, UniProt P52333); assay: JAK kinase assay (HTRF, phosphorylation of TK substrate-biotin), JAK3; details: ATP at Km (2 μM), read-out: JAK3 kinase inhibitory activity (EC50 indicator)
T3 construct: All four purified enzymes contain only the catalytic domain; His (N); purchased Carna Biosciences, Inc; host or cells: baculovirus expression system
T3 sequence (P52333 822-1111 limits assumed): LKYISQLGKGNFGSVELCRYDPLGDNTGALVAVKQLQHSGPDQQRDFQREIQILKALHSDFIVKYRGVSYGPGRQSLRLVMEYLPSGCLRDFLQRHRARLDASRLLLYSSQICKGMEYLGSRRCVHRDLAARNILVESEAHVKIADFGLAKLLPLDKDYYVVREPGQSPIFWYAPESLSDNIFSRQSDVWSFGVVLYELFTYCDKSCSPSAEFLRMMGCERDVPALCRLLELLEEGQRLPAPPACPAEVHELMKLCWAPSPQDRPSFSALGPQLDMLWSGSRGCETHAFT
Experimental: as §1, §2, §3

[4] = molecular target: T4, JAK2 (catalytic domain, His-tag) (Homo sapiens, UniProt O60674); assay: JAK kinase assay (HTRF, phosphorylation of TK substrate-biotin), JAK2; details: ATP at Km (4 μM), read-out: JAK2 kinase inhibitory activity (EC50 indicator)
T4 construct: All four purified enzymes contain only the catalytic domain; His (N); purchased Carna Biosciences, Inc; host or cells: baculovirus expression system
T4 sequence (O60674 849-1124 limits assumed): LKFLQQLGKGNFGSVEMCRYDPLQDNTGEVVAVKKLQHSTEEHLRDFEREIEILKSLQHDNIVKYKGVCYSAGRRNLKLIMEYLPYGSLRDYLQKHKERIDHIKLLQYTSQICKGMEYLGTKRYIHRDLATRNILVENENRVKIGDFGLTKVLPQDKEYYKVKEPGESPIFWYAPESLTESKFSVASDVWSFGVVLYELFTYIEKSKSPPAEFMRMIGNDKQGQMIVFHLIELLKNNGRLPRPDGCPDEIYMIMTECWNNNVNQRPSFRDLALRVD
Experimental: as §1, §2, §3

EC50 ([1]; HTRF assay)	EC50 ([2]; HTRF assay)	EC50 ([3]; HTRF assay)	EC50 ([4]; HTRF assay)	EC50 [1]	EC50 [2]	EC50 [3]	EC50 [4]	SMILES
> 0.5 µM	> 0.5 µM	> 0.5 µM	> 0.5 µM					O=C(c1ccccc1)N1C[C@@H]2C[C@H]1CN2c1ncnc2[nH]ccc12 (racemic) [Example 253, Phenyl-[5-(7H-pyrrolo[2,3-d]pyrimidin-4-yl)-2,5-diaza-bicyclo[2.2.1]hept-2-yl]-methanone]
				< 0.1 µM	> 0.5 µM	> 0.5 µM	0.1 to 0.5 µM	O=C(c1ccc(C(F)(F)F)cc1)N1[C@@H]2CC[C@H]1CN(c1ncnc3[nH]ccc13)C2 [Example 1, [3-(7H-Pyrrolo[2,3-d]pyrimidin-4-yl)-3,8-diazabicyclo[3.2.1]oct-8-yl]-(4-trifluoromethylphenyl)methanone]
				< 0.1 µM	0.1 to 0.5 µM	0.1 to 0.5 µM	< 0.1 µM	O=C(c1ccccn1)N1CCN(c2ncnc3[nH]ccc23)CC12CC2 [Example 2, Pyridin-2-yl-[7-(7H-pyrrolo[2,3-d]pyrimidin-4-yl)-4,7-diazaspiro[2.5]oct-4-yl]methanone]
				< 0.1 µM	0.1 to 0.5 µM	0.1 to 0.5 µM	< 0.1 µM	O=C(c1ccncc1)N1CCN(c2ncnc3[nH]ccc23)CC12CC2 [Example 3, Pyridin-4-yl-[7-(7H-pyrrolo[2,3-d]pyrimidin-4-yl)-4,7-diazaspiro[2.5]oct-4-yl]-methanone]
				0.1 to 0.5 µM	> 0.5 µM	0.1 to 0.5 µM	< 0.1 µM	O=C(Cc1cccnc1)N1CCN(c2ncnc3[nH]ccc23)CC12CC2 [Example 4, 2-Pyridin-3-yl-1-[7-(7H-pyrrolo[2,3-d]pyrimidin-4-yl)-4,7-diazaspiro[2.5]oct-4-yl]ethanone]
				< 0.1 µM	> 0.5 µM	0.1 to 0.5 µM	< 0.1 µM	O=C(c1ccc(-c2ccccc2)cc1)N1CCN(c2ncnc3[nH]ccc23)CC12CC2 [Example 5, Biphenyl-4-yl-[7-(7H-pyrrolo[2,3-d]pyrimidin-4-yl)-4,7-diazaspiro[2.5]oct-4-yl]methanone]
				< 0.1 µM	0.1 to 0.5 µM	0.1 to 0.5 µM	< 0.1 µM	O=C(c1cccc(-c2ccccc2)c1)N1CCN(c2ncnc3[nH]ccc23)CC12CC2 [Example 6, Biphenyl-3-yl-[7-(7H-pyrrolo[2,3-d]pyrimidin-4-yl)-4,7-diazaspiro[2.5]oct-4-yl]methanone]
				0.1 to 0.5 µM	> 0.5 µM	0.1 to 0.5 µM	< 0.1 µM	O=C(C1CCOC1)N1CCN(c2ncnc3[nH]ccc23)CC12CC2 (centres unmarked) [Example 7, [7-(7H-Pyrrolo[2,3-d]pyrimidin-4-yl)-4,7-diazaspiro[2.5]oct-4-yl]-(tetrahydrofuran-3-yl)methanone]
				< 0.1 µM	> 0.5 µM	0.1 to 0.5 µM	< 0.1 µM	CC(C#N)c1cccc(C(=O)N2CCN(c3ncnc4[nH]ccc34)CC23CC3)c1 (centres unmarked) [Example 8, 2-{3-[7-(7H-Pyrrolo[2,3-d]pyrimidin-4-yl)-4,7-diazaspiro[2.5]octane-4-carbonyl]phenyl}propionitrile]
				0.1 to 0.5 µM	> 0.5 µM	0.1 to 0.5 µM	< 0.1 µM	CC(C)(C)OC(=O)N1[C@@H]2CC[C@H]1CN(c1ncnc3[nH]ccc13)C2 [Example 9, 3-(7H-Pyrrolo[2,3-d]pyrimidin-4-yl)-3,8-diaza-bicyclo[3.2.1]octane-8-carboxylic acid tert-butyl ester]
				0.1 to 0.5 µM	> 0.5 µM	> 0.5 µM	0.1 to 0.5 µM	CC(C)CNC(=S)N1[C@@H]2CC[C@H]1CN(c1ncnc3[nH]ccc13)C2 [Example 10, 3-(7H-Pyrrolo[2,3-d]pyrimidin-4-yl)-3,8-diaza-bicyclo[3.2.1]octane-8-carbothioic acid isobutyl-amide]
				< 0.1 µM	> 0.5 µM	0.1 to 0.5 µM	< 0.1 µM	S=C(NCc1ccccc1)N1[C@@H]2CC[C@H]1CN(c1ncnc3[nH]ccc13)C2 [Example 11, 3-(7H-Pyrrolo[2,3-d]pyrimidin-4-yl)-3,8-diazabicyclo[3.2.1]octane-8-carbothioic acid benzylamide]
				0.1 to 0.5 µM	> 0.5 µM	> 0.5 µM	0.1 to 0.5 µM	COCCOC(=O)N1[C@@H]2CC[C@H]1CN(c1ncnc3[nH]ccc13)C2 [Example 12, 3-(7H-Pyrrolo[2,3-d]pyrimidin-4-yl)-3,8-diazabicyclo[3.2.1]octane-8-carboxylic acid 2-methoxyethyl ester]
				0.1 to 0.5 µM	> 0.5 µM	0.1 to 0.5 µM	0.1 to 0.5 µM	O=C(C1CCS(=O)(=O)CC1)N1CCN(c2ncnc3[nH]ccc23)CC12CC2 [Example 13, (1,1-Dioxo-hexahydro-1lambda*6*-thiopyran-4-yl)[7-(7H-pyrrolo[2,3-d]pyrimidin-4-yl)-4,7-diazaspiro[2.5]oct-4-yl]methanone]
				0.1 to 0.5 µM	> 0.5 µM	0.1 to 0.5 µM	< 0.1 µM	O=C(Cc1c[nH]c2ccccc12)N1CCN(c2ncnc3[nH]ccc23)CC12CC2 [Example 14, 2-(1H-Indol-3-yl)-1-[7-(7H-pyrrolo[2,3-d]pyrimidin-4-yl)-4,7-diazaspiro[2.5]oct-4-yl]ethanone]
				< 0.1 µM	0.1 to 0.5 µM	0.1 to 0.5 µM	< 0.1 µM	N#Cc1ccc(C(=O)N2CCN(c3ncnc4[nH]ccc34)CC23CC3)cc1 [Example 15, 4-[7-(7H-Pyrrolo[2,3-d]pyrimidin-4-yl)-4,7-diazaspiro[2.5]octane-4-carbonyl]benzonitrile]
				< 0.1 µM	0.1 to 0.5 µM	< 0.1 µM	< 0.1 µM	O=C(c1c[nH]c2ccccc12)N1CCN(c2ncnc3[nH]ccc23)CC12CC2 [Example 16, (1H-Indol-3-yl)-[7-(7H-pyrrolo[2,3-d]pyrimidin-4-yl)-4,7-diazaspiro[2.5]oct-4-yl]methanone]
				< 0.1 µM	0.1 to 0.5 µM	< 0.1 µM	< 0.1 µM	NS(=O)(=O)CCC(=O)N1CCN(c2ncnc3[nH]ccc23)CC12CC2 [Example 17, 3-Oxo-3-[7-(7H-pyrrolo[2,3-d]pyrimidin-4-yl)-4,7-diazaspiro[2.5]oct-4-yl]propane-1-sulfonic acid amide]
				< 0.1 µM	0.1 to 0.5 µM	0.1 to 0.5 µM	< 0.1 µM	N#CCc1ccc(C(=O)N2CCN(c3ncnc4[nH]ccc34)CC23CC3)cc1 [Example 18, {4-[7-(7H-Pyrrolo[2,3-d]pyrimidin-4-yl)-4,7-diazaspiro[2.5]octane-4-carbonyl]-phenyl}acetonitrile]
				< 0.1 µM	0.1 to 0.5 µM	< 0.1 µM	< 0.1 µM	O=C(c1cnccn1)N1CCN(c2ncnc3[nH]ccc23)CC12CC2 [Example 19, Pyrazin-2-yl-[7-(7H-pyrrolo[2,3-d]pyrimidin-4-yl)-4,7-diazaspiro[2.5]oct-4-yl]methanone]

— patent US9346809B2 (LEO PHARMA A/S, priority 2009, dated 2016)
